Consider two compounds from patent publication US9777070B2, “Anti-PTK7 antibody-drug conjugates” (Pfizer Inc., priority 2014, dated 2017).

Values after ≈ are worked out from the molar mass of the structure shown. Square brackets hold non-standard residues; d marks the D form. Peptide text beside a SMILES is read from it. * marks the point of attachment. Dolaproine = CO[C@@H]([C@@H]1CCCN1)[C@@H](C)C(=O)O; Dil = CC[C@H](C)[C@H](NC)[C@@H](CC(=O)O)OC; Doe = c1ccc(C[C@H](N*)c2nccs2)cc1; Aib = CC(C)(N)C(=O)O

For one experiment, the system named is H446 cells. Description: In vitro cytotoxicity, MTS, 4 days. The experiment is classed as cell-based. As to conditions: Homo sapiens, NCI-H446, 96 h. The procedure: (§1) The cytotoxicity of the antibody-drug conjugate hu24-vc0101 was evaluated on cell lines that express the target PTK7. The engineered HEK293T-PTK7 over-expressing cell line was plated into a clear flat-bottom tissue culture plate (BD Falcon) at 500 cells per 180 μL of cell culture media per well. Human cancer cell lines were also tested in this assay and plated at a density that was previously determined to be optimal for each cell line according to their rate of growth (H661 1500 cells/well and H446 9600 cells/well in 150 μl). The cells were incubated overnight at 37° C. in a 5% CO2 incubator. On the following day, the hu24-vc0101 ADC and the 8.84 Ab-vc0101 ADC (negative control) were added to the cells on a 10 point concentration curve in triplicate samples starting with 3 or 10 μg/mL with 1:3 dilutions in cell culture media. The plate was incubated in a 37° C., 5% CO2 incubator for 4 days. The MTS assay (Promega CellTiter 96 Aqueous Non-Radioactive Cell Proliferation Assay) was used according to the supplier's instructions. 30 μL (H446, H661) or 40 μL (HEK293T-PTK7) of the combined MTS reagent was added to each well, and the plate was incubated in a 37° C., 5% CO2 incubator for 2 hours. The OD was determined at 490 nm with a 96-well plate reader. The average reading from wells with media alone was subtracted from the readings of wells with cells to control for background OD.

The next experiment has as its system H661 cells. Description: In vitro cytotoxicity, MTS, 4 days. Format: cell-based. To be noted: Homo sapiens, NCI-H661, 96 h. The procedure:
as §1

Another experiment relates to H661 lung cancer cells. Briefly: Microtubule structure by anti-tubulin immunofluorescence. Format: cell-based, human. As to conditions: 48 hours, ADC or mAb 0-4 μg/mL, free 0101 0.1-10 nM, FIG. 22. The procedure: The cells were then fixed in 3% paraformaldehyde, washed with PBS, permeabilized with 0.5% Triton-X® (Sigma Chemical) in PBS, washed with PBS, and incubated with blocking buffer (5% normal goat serum and 0.2% Tween-20 in PBS). Cells were incubated with the primary anti-α-tubulin antibody (Sigma NoT9026, clone DM1A) in blocking buffer for 1 hour at room temperature. Afterwards, the cells were washed with PBS and incubated for 30 minutes with an Alexa Fluor® 488-conjugated secondary antibody (Invitrogen Corp) and 4′,6-diamidino-2-phenylindole (DAPI) to stain the DNA. The cells were visualized on a Zeiss LSM 510 Meta confocal microscope.

Experiment [1] concerns Breast-64 (BR64) TNBC PDX. Description: In vivo efficacy, PDX tumor growth. Further details: species or system human tumor in NOD/SCID mice. To be noted: 20 mg/kg. An excerpt: (§2) The effects of anti-PTK7 antibody-drug conjugates were further evaluated on the in vivo growth of human tumor patient-derived xenografts (PDX). Primary tumor resection samples were procured from clinical sites following Institutional Review Board for the Protection of Human Subjects approval and in accordance with HIPAA regulations. Tumor fragments were stored and shipped in Hypothermasol (Biolife Solutions) on ice and were embedded in Matrigel (BD) containing a proprietary mix of growth factors and implanted subcutaneously into the mammary fatpad of female NOD/SCID mice within 24 hours of resection. Mice were monitored for health status daily and for tumor growth initially by visual inspection twice per week. Once the tumors were palpable, measurements of tumor volume began to track tumor growth and estimate cell doubling time. Tumor volume was estimated using the equation V=(A*B^2)/2 where A is the long axis and B is the short axis. When tumors reached a volume of 500 mm^3 to 1,500 mm^3, they were harvested for study and for re-transplant as a patient-derived xenograft (PDX). Depending on the line, mechanical and/or chemical dissociation can be used to separate the individual cells for passage. Live cells were inoculated into naïve animals with 10,000 to 50,000 cells per animals
(§3) For efficacy studies, tumors were harvested from passaging studies and cells were dissociated into single cell suspension. Preparations were counted for live cells using Trypan blue exclusion and 10,000 to 50,000 cells were inoculated per mouse in Matrigel. […] Tumor growth was initially followed by palpability with measurements beginning once tumor volumes reached about 30 mm^3. Studies were randomized based on tumor size once a cohort of tumor-bearing mice reached 140 mm^3 to 180 mm^3. Animals were dosed by intraperitoneal injection twice a week for two weeks (q4dx4). Study groups were followed until individual mice or entire group tumor measurements reached 1200 mm^3 when sacrifice was indicated in accordance with IACUC protocol. For selected dosing studies, pharmacokinetic submandibular bleeds were performed at 2 hours, 36 hours and 72 hours. A volume of 10 μL of blood was immediately pipetted into 90 μL of HBS-P (GE Healthcare). Samples were stored at −80° C. prior to analysis. For each tumor measurement the tumor volume±standard error of the mean (SEM) is provided. GT=Group Terminated due to large tumor size.
(§4) Animals were dosed every four days for four cycles (Q4Dx4) by intraperitoneal injection except the BR5 study which was by intravenous injection on the same schedule. Tumor measurements were recorded one or two times per week using digital calipers and tumor volume was estimated using the equation V=(A×B^2)/2 where A is the long axis and B is the short axis. Animal body weights were measured and recorded at least once a week. Study groups were followed until individual mice or entire group tumor measurements reached 1200 mm^3 at which point sacrifice was indicated in accordance with IACUC protocol. For the BR5 study, animals were sacrificed once tumor volume approached 15% of the body weight at staging in accordance with IACUC protocol.
Tumor growth inhibition (TGI) was calculated using the equation % TGI=[1−(mean tumor volume of treated)/(mean tumor volume of vehicle)]. TGI was calculated at the latest possible time point, which was typically the last measurement before the control group was discontinued as described above. Tumor regression was defined as a reduction in mean tumor volume after dosing. In cases where tumors regressed, Time To Progression (TTP) indicates the number of days between the first does and the time at which mean tumor volume increased from the previous measurement to a statistically significant degree.

For experiment [2], the system named is Breast-22 (BR22) TNBC PDX. Description: In vivo efficacy, PDX tumor growth. Further details: species or system human tumor in NOD/SCID mice. As to conditions: 20 mg/kg.
Text: as §2, §3, §4
(§5) Tumor growth inhibition (TGI) was calculated using the equation % TGI=[1−(mean tumor volume of treated)/(mean tumor volume of vehicle)]. […] Tumor regression was defined as a reduction in mean tumor volume after dosing. In cases where tumors regressed, Time To Progression (TTP) indicates the number of days between the first does and the time at which mean tumor volume increased from the previous measurement to a statistically significant degree.

In experiment [3] the test system is Breast-31 (BR31) TNBC PDX. Description: In vivo efficacy, PDX tumor growth. To be noted: 20 mg/kg. Further details: species or system human tumor in NOD/SCID mice.
Text: as §2, §3, §4, §5

A further experiment deals with BR13 TNBC breast tumors. Briefly: Tumor-initiating cell (TIC) frequency by limit dilution analysis after in vivo treatment. Also on record: species or system human tumor in mice. As to conditions: for # Animals with tumors: 20 mpk. The procedure:
To determine whether anti-PTK7 antibody-drug conjugate treatments reduced tumor-initiating cell (TIC) frequency in tumors, BR13 TNBC breast tumors were treated with 4 mg/kg hu24-vc0101 ADC, 4 mg/kg control IgG ADC, or 20 mg/kg docetaxel chemotherapy twice weekly for a total of 3 doses (Days 0, 3 & 7). Live, residual human tumor cells (i.e. hESA^+ mCD45^− mH-2Kd^−) were isolated from dissociated tumors at day 10 and re-implanted into naïve animals in a limit dilution analysis (LDA). Resulting tumor incidence was monitored for up to 40 weeks post-transplant. The day of tumor harvest (day 10) and serial transplantation was chosen based on when tumors were starting to regress following hu24-vc0101 exposure. Tumors were dissociated and stained with anti-human ESA, anti-mouse CD45, and anti-mouse H-2Kd antibodies. Three tumors per treatment group were pooled, and live human tumor cells were sorted by flow cytometry. Groups of 10 mice were injected with either 293, 73, 37 or 15 tumor cells sorted from control IgG ADC treated tumors; 159, 90, 40 or 10 tumor cells sorted from hu24-vc0101 treated tumors; or 257, 33 or 15 tumor cells sorted from docetaxel-treated tumors. Tumors in recipient mice were measured weekly and tumors that exceeded 200 mm^3 in recipient mice were scored as positive. Using Poisson distribution statistics, via L-Calc software (Stemcell Technologies, Vancouver, BC), injected cell doses of recipients with and without tumors by 40 weeks post-transplant were used to calculate the frequency of TIC after each treatment.

The IC50 is the point on the concentration scale where inhibition reaches its midpoint. In the case of `CC[C@H](C)[C@@H]([C@@H](CC(=O)N1CCC[C@H]1[C@H](OC)[C@@H](C)C(=O)N[C@@H](Cc1ccccc1)c1nccs1)OC)N(C)C(=O)[C@@H](NC(=O)C(C)(C)N)C(C)C` [compound 0101, 2-methylalanyl-N-[(3R,4S,5S)-3-methoxy-1-{(2S)-2-[(1R,2R)-1-methoxy-2-methyl-3-oxo-3-{[(1S)-2-phenyl-1-(1,3-thiazol-2-yl)ethyl]amino}propyl]pyrrolidin-1-yl}-5-methyl-1-oxoheptan-4-yl]-N-methyl-L-valinamide] (H-[Aib]V[Dil][Dolaproine]-Doe), the IC50 worked out at 0.59 ng/mL (≈ 0.794 nM) with H446 cells and 0.33 ng/mL (≈ 0.444 nM) in the experiment on H661 cells. The “effect on microtubule structure and cell cycle” value in the experiment on H661 lung cancer cells was “disrupted microtubule structure and led to G2/M cell cycle arrest”.

As to `CC(=O)O[C@@]12CO[C@@H]1C[C@H](O)[C@@]1(C)C(=O)[C@H](O)C3=C(C)[C@@H](OC(=O)[C@H](O)[C@@H](NC(=O)OC(C)(C)C)c4ccccc4)C[C@@](O)([C@@H](OC(=O)c4ccccc4)[C@H]21)C3(C)C` [docetaxel, reference compound], the “tumor volume ± SEM” value in experiment [1] (Day 0) turned out to be 543 ± 46 mm^3; in experiment [1] (Day 7) it was 1112 ± 97 mm^3; in experiment [1] (Day 14) it was 1805 ± 206 mm^3; in experiment [2] (Day 0) it was 182 ± 21 mm^3; in experiment [2] (Day 7) it was 154 ± 23 mm^3; in experiment [2] (Day 14) it was 107 ± 51 mm^3. Further, the “tumor volume ± SEM” value is given as 218 ± 98 mm^3 in experiment [2] (Day 21); 418 ± 165 mm^3 in experiment [2] (Day 28); 1191 ± 264 mm^3 in experiment [2] (Day 35); 259 ± 47 mm^3 in experiment [3] (Day 0); 331 ± 70 mm^3 in experiment [3] (Day 7); 371 ± 82 mm^3 in experiment [3] (Day 14). Also, the “tumor volume ± SEM” value in experiment [3] (Day 21) is on record as 451 ± 91 mm^3; in experiment [3] (Day 28) it was 510 ± 103 mm^3; in experiment [3] (Day 35), 614 ± 117 mm^3; in experiment [3] (Day 42), 790 ± 117 mm^3; in experiment [3] (Day 49), 837 ± 126 mm^3; in experiment [3] (Day 63), 1131 ± 148 mm^3. In experiment [3] (Day 70), the “tumor volume ± SEM” value worked out at 1317 ± 182 mm^3. Moreover, in the experiment on BR13 TNBC breast tumors (BR13, 20 mg/kg, Days 0, 3 & 7, tumors harvested day 10, p=0.09), the “TIC frequency, fold lower than in control IgG ADC treated tumors” value turned out to be 2.1 fold. Also, the “# Animals with tumors” value in the experiment on BR13 TNBC breast tumors (Group C1, 257 cells implanted per animal, 9 animals in group) worked out at 8; in the experiment on BR13 TNBC breast tumors (Group C2, 33 cells implanted per animal, 8 animals in group), 1; with BR13 TNBC breast tumors (Group C3, 15 cells implanted per animal, 6 animals in group) it was 0.
